Values of other authors in US20110305747A1, “COMBINATION OF DAPSONE WITH OTHER ANTI-ACNE AGENTS” (ALLERGAN, INC., priority 2009, published 2011).
≈ marks a conversion by molar mass, not a printed value.

Columns and labels:
spontaneous comedones = settings: Rhino mouse containing a high density of spontaneous comedones (Allec et al, 1997)
[1] = tested on: CRABPII (cellular retinol-binding protein II)

Binding to CRABPII [1] | mean Cmax of adapalene (0.3% adapalene gel on face, chest and back, approx. 2 mg/cm2, Day 10 of treatment, 15 of 16 patients quantifiable (LOQ=0.1 ng/mL)) [ng/mL] | Mean AUC0-24hr (0.3% adapalene gel, approx. 2 mg/cm2, Day 10, 15 of the 16 patients) [ng·h/mL] | Terminal apparent half-life, mean (0.3% adapalene gel, 15 of 16 patients) [h] | Detection in plasma 72 hours after the last application (0.3% adapalene gel, all but one subject) | MIC90 against P. acnes (P. acnes) [µg/mL] | SMILES | Comedolytic activity (spontaneous comedones)
does not bind | 0.553 ± 0.466 | 8.37 ± 8.46 | 17.2 ± 10.2 | not detected | – | COc1ccc(-c2ccc3cc(C(=O)O)ccc3c2)cc1C12CC3CC(CC(C3)C1)C2 [adapalene] | comedolytic activity
– | – | – | – | – | 8 (≈ 32.2 µM) | Nc1ccc(S(=O)(=O)c2ccc(N)cc2)cc1 [dapsone] | –
